Results published in US6737383B1, “Herbicidal oxadiazolidines” (priority 1999, dated 2004).

How the values were obtained:
rape = assay: Test B pre/postemergence rape; format: in vivo, Brassica napus
In short: (§1)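 Herbicidal effect was estimated by eye on a ten-point control scale after plants spent twelve to sixteen days in a greenhouse following soil or foliar treatment. Foliar sprays targeted plants at one to four leaves; all doses were formulated in a non-phytotoxic solvent with surfactant.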

bedstraw = assay: Test B pre/postemergence bedstraw; format: in vivo, Galium aparine
In short: as §1

morningglory = assay: Test B pre/postemergence morningglory; format: in vivo, Ipomoea hederacea
In short: as §1

bamyardgrass = assay: Test B flood test barnyardgrass; format: in vivo, Echinochloa crus-galli; settings: Pre-emergence
In short: (§2)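 Flood test on plants grown to the 2-leaf stage; treated plants kept in greenhouse twelve to sixteen days, then visually rated against controls on a 0 (no effect) to 10 (complete control) scale.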

smallflower flatsedge = assay: Test B flood test smallflower flatsedge; format: in vivo, Cyperus difformis; settings: Pre-emergence
In short: as §2

wheat = assay: Test B pre/postemergence wheat; format: in vivo, Triticum aestivum
In short: as §1

duck salad = assay: Test B flood test duck salad; format: in vivo, Heteranthera limosa; settings: Pre-emergence
In short: as §2

velvetleaf = assay: Test B pre/postemergence velvetleaf; format: in vivo, Abutilon theophrasti
In short: as §1

giant foxtail = assay: Test B pre/postemergence giant foxtail; format: in vivo, Setaria faberii
In short: as §1

wild oat = assay: Test B pre/postemergence wild oat; format: in vivo, Avena fatua
In short: as §1

soybean = assay: Test B pre/postemergence soybean; format: in vivo, Glycine max
In short: as §1

corn = assay: Test B pre/postemergence corn; format: in vivo, Zea mays
In short: as §1

surinam grass = assay: Test B pre/postemergence surinam grass; format: in vivo, Brachiaria decumbens
In short: as §1

crabgrass = assay: Test B pre/postemergence crabgrass; format: in vivo, Digitaria sanguinalis
In short: as §1

blackgrass = assay: Test B pre/postemergence blackgrass; format: in vivo, Alopecurus myosuroides
In short: as §1

cocklebur = assay: Test B pre/postemergence cocklebur; format: in vivo, Xanthium strumarium
In short: as §1

[1] = Postemergence, Rate 1000 g/ha, scale 0 to 10 (0 no effect, 10 complete control)
[2] = Preemergence, Rate 250 g/ha, scale of 0 to 10 where 0 is no effect and 10 is complete control
[3] = Rate 125 g/ha, Postemergence, scale of 0 to 10 where 0 is no effect and 10 is complete control
[4] = Rate 250 g/ha, Postemergence, scale of 0 to 10 where 0 is no effect and 10 is complete control
[5] = Rate 1000 g/ha, Preemergence, scale 0 to 10 (0 no effect, 10 complete control)
[6] = Preemergence, Rate 500 g/ha, scale of 0 to 10 where 0 is no effect and 10 is complete control
[7] = Rate 500 g/ha, Postemergence, scale 0 to 10, 0 no effect, 10 complete control
[8] = Rate 1000 g/ha, scale 0 to 10 (0 no effect, 10 complete control)
[9] = Rate 125 g/ha, flood test species, scale 0 to 10 where 0 is no effect and 10 is complete control
[10] = Rate 250 g/ha, flood-test species, scale 0 to 10, 0 is no effect, 10 is complete control
[11] = Rate 500 g/ha, flood test species, scale 0 to 10 (0 no effect, 10 complete control)

Structure (SMILES): CCOC(=O)C(C)N(C(=O)n1oc(=O)n(C(C)C)c1=O)c1ccc(F)cc1 (centres unmarked) [Compound 302]
- Rape plant response rating (rape; [1]): 0
- Rape plant response rating (0 to 10 scale) (rape; Preemergence, Rate 125 g/ha): 0
- Rape plant response rating (rape; [2]): 0
- Rape plant response rating (rape; [3]): 0
- Plant response rating, Rape (rape; [4]): 0
- Plant response rating, Rape (rape; [5]): 8
- Bedstraw plant response rating (bedstraw; [1]): 0
- Bedstraw plant response rating (0 to 10 scale) (bedstraw; Preemergence, Rate 125 g/ha): 0
- Bedstraw plant response rating (bedstraw; [2]): 0
- Bedstraw plant response rating (bedstraw; [6]): 0
- Bedstraw plant response rating (bedstraw; [3]): 0
- Plant response rating, Bedstraw (bedstraw; [4]): 0
- Bedstraw plant response rating (bedstraw; [7]): 0
- Plant response rating, Bedstraw (bedstraw; [5]): 0
- Morningglory plant response rating (morningglory; [1]): 2
- Morningglory plant response rating (0 to 10 scale) (morningglory; Preemergence, Rate 125 g/ha): 0
- Morningglory plant response rating (morningglory; [2]): 0
- Morningglory plant response rating (morningglory; [6]): 0
- Morningglory plant response rating (morningglory; [3]): 1
- Plant response rating, Morningglory (morningglory; [4]): 2
- Plant response rating, Morningglory (morningglory; [5]): 0
- Barnyardgrass plant response rating (bamyardgrass; [8]): 0
- Barnyardgrass plant response rating (bamyardgrass; [9]): 0
- Barnyardgrass plant response rating (bamyardgrass; [10]): 0
- Barnyardgrass plant response rating (bamyardgrass; [11]): 0
- S. Flatsedge plant response rating (smallflower flatsedge; [8]): 0
- S. Flatsedge plant response rating (smallflower flatsedge; [9]): 0
- S. Flatsedge plant response rating (smallflower flatsedge; [10]): 0
- S. Flatsedge plant response rating (smallflower flatsedge; [11]): 0
- Wheat plant response rating (wheat; [1]): 1
- Wheat plant response rating (0 to 10 scale) (wheat; Preemergence, Rate 125 g/ha): 0
- Wheat plant response rating (wheat; [2]): 0
- Wheat plant response rating (wheat; [6]): 0
- Wheat plant response rating (wheat; [3]): 0
- Plant response rating, Wheat (wheat; [4]): 0
- Plant response rating, Wheat (wheat; [5]): 0
- Ducksalad plant response rating (duck salad; [8]): 0
- Ducksalad plant response rating (duck salad; [9]): 0
- Ducksalad plant response rating (duck salad; [10]): 0
- Ducksalad plant response rating (duck salad; [11]): 0
- Velvetleaf plant response rating (velvetleaf; [1]): 0
- Velvetleaf plant response rating (0 to 10 scale) (velvetleaf; Preemergence, Rate 125 g/ha): 0
- Velvetleaf plant response rating (velvetleaf; [2]): 0
- Velvetleaf plant response rating (velvetleaf; [6]): 0
- Velvetleaf plant response rating (velvetleaf; [3]): 0
- Plant response rating, Velvetleaf (velvetleaf; [4]): 0
- Plant response rating, Velvetleaf (velvetleaf; [5]): 4
- Giant foxtail plant response rating (giant foxtail; [1]): 7
- Giant foxtail plant response rating (0 to 10 scale) (giant foxtail; Preemergence, Rate 125 g/ha): 6
- Giant foxtail plant response rating (giant foxtail; [2]): 7
- Giant foxtail plant response rating (giant foxtail; [6]): 9
- Giant foxtail plant response rating (giant foxtail; [3]): 1
- Plant response rating, Giant foxtail (giant foxtail; [4]): 2
- Plant response rating, Giant foxtail (giant foxtail; [5]): 10
- Wild oats plant response rating (wild oat; [1]): 0
- Wild oats plant response rating (0 to 10 scale) (wild oat; Preemergence, Rate 125 g/ha): 0
- Wild oats plant response rating (wild oat; [2]): 2
- Wild oats plant response rating (wild oat; [6]): 5
- Wild oats plant response rating (wild oat; [3]): 0
- Plant response rating, Wild oats (wild oat; [4]): 0
- Plant response rating, Wild oats (wild oat; [5]): 6
- Soybean plant response rating (soybean; [1]): 5
- Soybean plant response rating (0 to 10 scale) (soybean; Preemergence, Rate 125 g/ha): 0
- Soybean plant response rating (soybean; [2]): 0
- Soybean plant response rating (soybean; [6]): 0
- Soybean plant response rating (soybean; [3]): 2
- Plant response rating, Soybean (soybean; [4]): 3
- Plant response rating, Soybean (soybean; [5]): 0
- Corn plant response rating (corn; [1]): 0
- Corn plant response rating (0 to 10 scale) (corn; Preemergence, Rate 125 g/ha): 0
- Corn plant response rating (corn; [2]): 0
- Corn plant response rating (corn; [6]): 0
- Corn plant response rating (corn; [3]): 0
- Plant response rating, Corn (corn; [4]): 0
- Corn plant response rating (corn; [7]): 0
- Plant response rating, Corn (corn; [5]): 0
- B. signalgrass plant response rating (surinam grass; [1]): 0
- B. signalgrass plant response rating (0 to 10 scale, 0 is no effect, 10 is complete control) (surinam grass; Preemergence, Rate 125 g/ha): 0
- B. signalgrass plant response rating (surinam grass; [2]): 0
- B. signalgrass plant response rating (surinam grass; [6]): 3
- B. signalgrass plant response rating (surinam grass; [3]): 0
- Plant response rating, B. signalgrass (surinam grass; [4]): 0
- B. signalgrass plant response rating (surinam grass; [7]): 0
- Plant response rating, B. signalgrass (surinam grass; [5]): 7
- Crabgrass plant response rating (crabgrass; [1]): 1
- Crabgrass plant response rating (0 to 10 scale) (crabgrass; Preemergence, Rate 125 g/ha): 0
- Crabgrass plant response rating (crabgrass; [2]): 2
- Crabgrass plant response rating (crabgrass; [6]): 7
- Crabgrass plant response rating (crabgrass; [3]): 0
- Plant response rating, Crabgrass (crabgrass; [4]): 0
- Plant response rating, Crabgrass (crabgrass; [5]): 7
- Blackgrass plant response rating (blackgrass; [1]): 6
- Blackgrass plant response rating (0 to 10 scale) (blackgrass; Preemergence, Rate 125 g/ha): 0
- Blackgrass plant response rating (blackgrass; [2]): 2
- Blackgrass plant response rating (blackgrass; [6]): 5
- Blackgrass plant response rating (blackgrass; [3]): 0
- Plant response rating, Blackgrass (blackgrass; [4]): 0
- Blackgrass plant response rating (blackgrass; [7]): 2
- Plant response rating, Blackgrass (blackgrass; [5]): 6
- Cocklebur plant response rating (cocklebur; [1]): 0
- Cocklebur plant response rating (0 to 10 scale) (cocklebur; Preemergence, Rate 125 g/ha): 0
- Cocklebur plant response rating (cocklebur; [2]): 0
- Cocklebur plant response rating (cocklebur; [6]): 0
- Cocklebur plant response rating (cocklebur; [3]): 0
- Plant response rating, Cocklebur (cocklebur; [4]): 0
- Cocklebur plant response rating (cocklebur; [7]): 0
- Plant response rating, Cocklebur (cocklebur; [5]): 0
